Measurements taken from patent publication US20260083751A1, “ALLOSTERIC MODULATORS OF ANDROGEN RECEPTOR COACTIVATOR RECRUITMENT FOR CRPC THERAPY” (University of Pittsburgh – Of the Commonwealth System of …, priority 2022, published 2026).
Where two headings read alike, the source gives them in different places.

Key:
[1] = tested on: PC-3, DU-145, LNCaP, C4-2, and 22Rv1 PC cell lines; assay: Prostate cancer cell line growth inhibition assays, results stated across cell lines; type: cell-based; conditions: for Relative potency in AR positive versus AR negative PC cell lines: 72 h growth inhibition; for GI50s against the 3 AR+ PCa cell lines: LNCaP, C4-2, 22Rv1; for GI50s against all 5 PCa cell lines: all 5 cell lines, 72 h
Method: Prostate Cancer Cell Line Growth Inhibition Assays: The PC-3, DU-145, LNCaP, C4-2, and 22Rv1 PC cell line growth inhibition assays have been described previously (Fancher et al., Assay Drug Dev Technol. 2016, 14:453-477; Fancher et al., Assay Drug Dev Technol. 2019, 17:364-386). On day 1, each PC cell line was harvested, counted, and seeded into two 384-well assay plates, a time zero (T0) and a time 72 h (T72) plate. PC cell lines were all seeded at 1,000 cells per well in 45 μL of tissue culture media in uncoated white clear bottom 384-well assay plates (VWR, #82050-076) using a Matrix electronic multichannel pipette (Thermo Fisher Scientific, Waltham, MA) and cultured overnight at 37° C., 5% CO2, and 95% humidity. On day 2, 25 μL of the CellTiter-Glo® (CTG) (Promega Corporation, Madison, WI) detection reagent was dispensed into the wells of the TO assay plate using a Matrix electronic multichannel pipette, and the RLUs were captured on the SpectraMax® M5e (Molecular Devices LLC, Sunnyvale, CA) microtiter plate reader. Also on day 2, 5 μL of compounds were transferred into the test wells of the T72 384-well assay plates which were returned to the incubator for 72 h. Control wells received DMSO alone. On day 5, 25 μL of the CTG detection reagent was dispensed into the wells of the T72 assay plate using a Matrix electronic multichannel pipette, and the RLU's were captured on the SpectraMax® M5e microtiter plate reader platform.
For the 96-well AR-LBD H^3-DHT radioligand binding assay, eight minimum and maximum plate control wells were utilized to normalize the data. For the PC cell line growth inhibition assays the DMSO control data from the TO and T72 assay plates was used to assess the dynamic range of the T0 to T72 cell growth, and to calculate S:B ratios and Z′-factor coefficient statistics for the assay signal window (T0 to T72). To normalize the 72 h compound exposure PC growth inhibition data, the signals from the compound treated wells were processed and expressed as % of the T72 DMSO plate controls. IC50 and GI50 values for each of the bioassays were calculated using GraphPad Prism 9 software to plot and fit data to curves using the Sigmoidal dose response variable slope equation Y=Bottom+[Top-Bottom]/[1+10^(Log EC50−X)*HillSlope].

[2] = target: T1, AR-LBD PPI interactions with TIF2 and SRC1 coactivators (Homo sapiens, UniProt P10275); assay: TIF2 and SRC1 mammalian 2-hybrid assays, results stated jointly; type: cell-based; conditions: for IC50: both M2H assays
T1 construct: AR-LBD amino acids 658-919 expressed as a fusion protein with Gal4-DBD; expressed in transfected cells; host or cells: HEK 293, transient co-transfection
T1 sequence (P10275 659-920): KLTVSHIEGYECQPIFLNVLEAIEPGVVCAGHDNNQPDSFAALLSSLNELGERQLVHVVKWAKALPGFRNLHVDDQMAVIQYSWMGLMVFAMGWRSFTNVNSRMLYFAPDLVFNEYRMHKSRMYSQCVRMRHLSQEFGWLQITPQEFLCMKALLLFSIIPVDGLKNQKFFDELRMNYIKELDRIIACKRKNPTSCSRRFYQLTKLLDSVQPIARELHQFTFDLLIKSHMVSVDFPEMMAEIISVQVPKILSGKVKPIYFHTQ
Text: TIF2 and SRC1 Mammalian 2-Hybrid Assays: The 5×GAL4-TATA-luciferase reporter plasmid was a gift from Dr. Richard Maurer from the Oregon Health and Science University (Gonzalez et al., Cell 1989, 59:675-80), and constructs pGAL4-hAR-658-919 (AR-LBD amino acids 658-919 expressed as a fusion protein with Gal4-DBD) (Askew et al., J Biol Chem 2007, 282:25801-16), pVP16-SRC1 (full-length SRC1 expressed as a fusion with VP16 activation domain) (He et al., J Biol Chem 1999, 274:37219-25) and pVP16-Empty vectors were kindly provided to us by Dr. Elizabeth Wilson, from UNC Chapel Hill. pVP16-TIF2 was generated as described previously (Fancher et al., Assay Drug Dev Technol. 2019, 17:364-386). HEK 293 cells were transiently co-transfected with 5 ng of pGal4-AR-LBD, 10 ng of either pVP16-TIF2 or pVP16-SRC1, and 20 ng of the 5×Gal4-TATA-Luc reporter as described previously (Ibid.). HEK 293 cells were bulk co-transfected with the three plasmids that had been individually incubated with FuGENE® 6 transfection agent (Fugent LLC, Middleton, WI) at a 3:1 ratio for 25 min at room temperature (RT) in serum free media (SFM) and then combined with HEK 293 cells that were suspended in DMEM (Cellgro10013CV) with 2 mM L-glutamine (Invitrogen) that was supplemented with 10% fetal bovine serum, and 5,000 cells in a volume of 40 μL were seeded into the wells of white opaque 384-well assay plates (Greiner Bio-one, #781080) and cultured overnight at 37° C., 5% CO2, and 95% humidity. […] 25 μL of BrightGlo® reagent (Promega, Madison, WI) was added to the plate and the relative luminescence units (RLUs) were captured on a SpectraMax® M5e microtiter plate reader (Molecular Devices, LLC, San Jose, CA).

[3] = IC50s in TIF2 and SRC-1 M2H assays (potency range in words)
[4] = read-out: IC50s, DHT-induced AR-LBD PPI interactions with TIF2 and SRC1 coactivators

SMILES | IC50 [2, 3] [µM] | IC50 [2, 4] [µM] | Relative potency in AR positive versus AR negative PC cell lines [1] | other results
Cc1ccccc1-c1cc(O)c2c(c1)CN(c1cc(N)ncn1)CCO2 [Compound S1-4] | – | – | equipotent against all 5 PC cell lines | –
Cc1nsc(NC(=O)N2CCC(Cn3ccnc3)CC2)n1 [Compound S2-7] | – | – | – | GI50s against the 3 AR+ PCa cell lines [1]: 30 to 64 µM; GI50s in AR negative cell lines ([1]; PC-3 and DU-145): ~94 µM; GI50s against all 5 PCa cell lines [1]: 30 to 94 µM
CC(=O)NCCC(=O)NCc1ccc2[nH]c(-c3ccccc3F)c(C)c2c1 [Compound S3-13] | 10 to 100 | 10 to 20 | roughly equipotent against all 5 PC cell lines | GI50s against 2 AR+ PCa cell lines ([1]; 2 AR+ cell lines, not named): 68 to 70 µM
Cc1cccc2c(-c3ccc(O)c(F)c3)c[nH]c12 [Compound S3-17] | 10 to 100 | 10 to 20 | roughly equipotent against all 5 PC cell lines | –
Cc1c(-c2ccccc2F)[nH]c2ccc(CNC(=O)CCc3cnccn3)cc12 [Compound S3-12] | 1 to 10 | < 10 | roughly equipotent against all 5 PC cell lines | –
CNC(=O)c1ccc(-c2c[nH]c3c(C)cccc23)cc1 [Compound S3-21] | 10 to 100 | 10 to 20 | differential cytotoxicity in AR positive PC cell lines | GI50s against 4 PCa cell lines ([1]; 4 cell lines, not named): 13 to 55 µM
Cc1ccccc1-c1cc(O)c2c(c1)CN(c1nccs1)CCO2 [Compound S1-3] | 1 to 10 | – | differential cytotoxicity in AR positive PC cell lines | GI50s against all 5 PCa cell lines [1]: 44 to 75 µM
COc1cc(-c2ccc(C)s2)cc2c1OCCN(c1nc(C(N)=O)cs1)C2 [Compound S1-5] | 10 to 100 | 20 to 42 | – | GI50s against all 5 PCa cell lines [1]: > 100 µM
Cc1c(-c2ccc(F)cc2)[nH]c2ccc(CNC(=O)c3ccc(CO)o3)cc12 [Compound S3-15] | 1 to 10 | < 10 | roughly equipotent against all 5 PC cell lines | –

Further lines, with some results ahead:

IC50 [2, 3] [µM] | IC50 [2, 4] [µM] | SMILES | Relative potency in AR positive versus AR negative PC cell lines [1] | other results
1 to 10 | – | Cc1nc(N)cc(N2CCOc3c(O)cc(-c4ccccc4C)cc3C2)n1 [Compound S1-2] | equipotent against all 5 PC cell lines | –
1 to 10 | < 10 | Cc1c(-c2ccccc2F)[nH]c2ccc(CNC(=O)CCc3cn[nH]c3)cc12 [Compound S3-11] | differential cytotoxicity in AR positive PC cell lines | –
1 to 10 | < 10 | Cc1c(-c2ccccc2F)[nH]c2ccc(CNC(=O)c3ccc(CO)o3)cc12 [Compound S3-14] | differential cytotoxicity in AR positive PC cell lines | GI50s against the 3 AR+ PCa cell lines [1]: 30 to 100 µM
1 to 10 | – | Cc1ccccc1-c1cc(O)c2c(c1)CN(c1nc(C(N)=O)cs1)CCO2 [Compound S1-1] | – | GI50s against all 5 PCa cell lines [1]: 29 to 70 µM; Fold difference of M2H IC50s to IC50 for AR-TIF2 PPI disruption [2]: ~5 fold
< 1 | – | Cc1nsc(NC(=O)N2CCC(Sc3ccccc3C)CC2)n1 [Compound S2-6] | – | GI50s against the 3 AR+ PCa cell lines [1]: 14 to 19 µM; Fold M2H IC50s less than corresponding AR-TIF2 biosensor IC50s [2]: ~10 fold; Fold lower IC50 for TIF2 than SRC1 ([2]; CoA selectivity): ~5 fold
